This note sets out measurements from patent US4975451A, “Insecticidal cyclopropyl di(aryl) 2-butenes” (FMC Corporation, priority 1989, dated 1990).

Converted amounts (≈) assume the structure as drawn.

Broadly, the LC50 is the concentration lethal to half of the exposed cells or organisms. Lower therefore signals a more lethal substance.

The nature of one data set: Fish toxicity, tilapia. Type of data set: in vivo. The note with it: water; Tilapia (Oreochromis niloticus), 48 hour test. The method, then:
Compounds of the present invention were tested for toxicity to fish using one inch long tilapia (Oreochromis niloticus). Prior to the test the tilapia were acclimated for one week in an aquarium, during which time they were fed with a ration of rice bran and pelletized hog feed. The water in the aquarium was changed daily with distilled water.
Stock solutions of each of the test chemicals were prepared by dissolving the weighed technical material in acetone and adding distilled water to provide a 1% acetone in water solution.
The test solutions were prepared by diluting the appropriate amount of a stock solution to 25 mL with distilled water. The appropriate amount of stock solution was determined for the concentration required in a final volume of 800 mL of test solution. The test chemicals were tested in triplicate at concentrations ranging from 0.005 ppm to 20 ppm. The actual concentrations of the test chemicals needed to determine LC50 values were determined by fish toxicity-range of application studies prior to the LC50 test. Each 25 mL test chemical solution was added to a one liter aquarium containing 500 mL of 0.01% (v/v) ethylene glycol in water. The aquariums were shaken gently and then allowed to stand for one hour. After this time the tilapia were added by first placing five fish in a container with 275 mL of distilled water and then pouring the water and fish into each aquarium. The dead and live fish were counted after 24 and 48 hours. Any fish observed to be dead was removed from its aquarium immediately. Upon completion of the 48 hour test period, the lethal concentration of each compound tested that would give 50% mortality to the tilapia was determined.

In a further data set the test system is cabbage looper. Briefly: Foliar evaluation, cabbage looper. Particulars: Trichoplusia ni, 48 hours, read-out: % Kill CL; for mortality at 500 ppm: rate 500 ppm; for mortality at 100 ppm: rate 100 ppm. Type of data set: in vivo. The method, then: (§1) The insecticidal activity of the pyrethroid-like compounds of this invention as identified in Table 1, appended, was evaluated as follows:
(§2) Compounds within the scope of this invention were tested by foliar application at various concentrations in aqueous solutions containing 10% (volume/volume) acetone and water. Insect species utilized included the cabbage looper (Trichoplusia ni), Mexican bean beetle (Epilachna varivestis), pea aphid (Acryrthosiphon pisum), tobacco budworm (Heliothis virescens) and twospotted spider mite (Tetranychus urticae).
(§3) For all insects except the pea aphid, pinto beans (Phaseolus vulgaris) plants were treated with the test solutions. The test solutions were applied with a sprayer to the upper and lower surfaces of the plant leaves to runoff. The plants were then allowed to dry and were severed at the base of the stem before being placed in cups. Ten second instar individuals of the appropriate insect species, except the tobacco budworm, were placed in each cup and the cup covered. Tests with the tobacco budworm used four replicates with each replicate containing five second instar tobacco budworms. In all tests, mortality was read 48 hours later.

The next data set has as its system Mexican bean beetle. Put plainly: Foliar evaluation, Mexican bean beetle. Particulars: Epilachna varivestis, 48 hours, read-out: % Kill MBB; for mortality at 100 ppm: rate 100 ppm. The data set is classed as in vivo. The protocol: as §1, §2, §3
The next data set relates to pea aphid. Briefly: Foliar evaluation, pea aphid. Type of data set: in vivo, Acryrthosiphon pisum. Particulars: Acyrthosiphon pisum, 48 hours, read-out: % Kill PA; for mortality at 500 ppm: rate 500 ppm; for mortality at 100 ppm: rate 100 ppm. The protocol:
as §1, §2, §3
In the case of the pea aphid, fava bean (Vicia faba) was substituted for pinto bean. The treated, potted plants were placed in cups infested with ten individuals and covered. Mortality was read 48 hours later.

The next data set has as its system tobacco budworm. Briefly: Foliar evaluation, tobacco budworm. Type of data set: in vivo. The note with it: Heliothis virescens, 48 hours, read-out: % Kill TBW; for mortality at 500 ppm: rate 500 ppm; for mortality at 100 ppm: rate 100 ppm. The protocol:
as §1, §2, §3

Another data set has as its system twospotted spider mite. Put plainly: Foliar acaricidal test, twospotted spider mite (susceptible). The data set is classed as in vivo. Particulars: Tetranychus urticae, 48 hours, read-out: % Kill TSM-S; for mortality at 500 ppm: rate 500 ppm; for mortality at 100 ppm: rate 100 ppm. The protocol:
as §1, §2
Acaricidal tests were performed using the following procedure: Leaves infested with adult twospotted spider mites (Tetranvchus urticae) were removed from culture plants and cut into segments containing 50-75 female mites. Each segment was placed on the upper leaf surface of a whole pinto bean plant. After the mites had migrated to the under surfaces of the leaves, the leaf segments used to infest were removed, and each plant was sprayed with test chemicals as described above. After the plants had dried, the entire plant and pot were placed in metal trays in a hood, a supply of water in the tray keeping the plants turgid. After 48 hours the living and dead mites were counted, and percent mortality was calculated.

Another data set deals with southern corn rootworm. Put plainly: Soil evaluation, southern corn rootworm. The data set is classed as in vivo, Diabrotica undecimounctata Howardi. The note with it: rate 7.5 ppm, 48 hours, read-out: Initial % Kill SCR. The protocol:
Soil evaluation of insecticidal activity of test compounds were conducted against the southern corn rootworm (Diabrotica undecimounctata Howardi). A 0.25 ml aliquot of a stock solution containing 64 mg of the candidate insecticide in 4.0 ml of acetone was pipetted into 41 mL of distilled water containing 0.1% octylphenoxypolyethoxyethanol emulsifier. […] In all cases, four mL of each test solution was pipetted into a 4 ounce specimen cup containing two two-day-old corn sprouts completely covered by 26 grams of dry sandy soil. The treated soil in each cup was allowed to stand uncovered in a hood to evaporate the acetone. Each cup was capped and the soil in each cup was mixed thoroughly. The cap of each cup was removed, and ten second instar southern corn rootworm larvae were added to each cup. The cups were each covered with lids perforated with two small holes to allow for ventilation. The cups were then held under fluorescent light (12 hours light: 12 hours dark) at 24°-26° C. for 48 hours. An untreated check and an appropriate standard were included in each test. Two replicates were run for each chemical treatment. The unaffected larvae from the soil of each cup were extracted by placing the contents of each cup into a modified Berlese polyethylene funnel fitted with an 18-mesh screen. The funnels were placed over containers of an aqueous detergent solution. Incandescent lights (100 watts) were placed 36 cm above the soil in each funnel. The heat from these lights slowly dried the soil causing larvae that had not been affected by the candidate insecticide to emerge from the soil and drop out of the funnel into the detergent solution. The percent mortality was determined by comparing the number of live larvae in the detergent solution with the total number of larvae infested during the initiation of the test. Percent mortality was determined in this manner for each concentration.

In “Fish toxicity, tilapia”, `CC1(C)C(C=C(Cl)Cl)C1C(=O)OC(C#N)c1cccc(Oc2ccccc2)c1` (stereo not shown) [cypermethrin, reference compound] gave a median lethal concentration (LC50) at 48 h of 0.02 mg/L (≈ 0.048 µM).

On to `Cc1c(CC=CC(c2ccc(Cl)cc2)C2CC2)cccc1-c1ccccc1` (stereo not shown) [Compound 7], for which the mortality at 500 ppm in the data set on cabbage looper worked out at 100%; in the data set on Mexican bean beetle (rate 500 ppm), 100%; in the data set with pea aphid, 60%; in the data set on tobacco budworm it was 100%; with twospotted spider mite it was 7%. The mortality at 7.5 ppm in the data set with southern corn rootworm amounted to 50%.

Take `Fc1ccc(CC=CC(c2ccc(C(F)(F)F)cc2)C2CC2)cc1Oc1ccccc1` (stereo not shown) [Compound 4]: the mortality at 100 ppm was 100% with cabbage looper; 100% in the data set on Mexican bean beetle; 90% in the data set on pea aphid; 100% in the data set on tobacco budworm; 90% in the data set with twospotted spider mite.

In the case of `Fc1ccc(CC=CC(c2ccc(OC(F)(F)F)cc2)C2CC2)cc1Oc1ccccc1` (stereo not shown) [Compound 6, 1-cyclopropyl-1-(4-trifluoromethoxyphenyl)-4-(4-fluoro-3-phenoxyphenyl)-2-butene], the mortality at 100 ppm worked out at 100% in the data set on cabbage looper; 100% in the data set with Mexican bean beetle; 85% in the data set with pea aphid; 100% in the data set with tobacco budworm; 99% with twospotted spider mite. In addition, the mortality at 7.5 ppm in the data set on southern corn rootworm was determined as 70%. The median lethal concentration (LC50) at 48 h in the data set “Fish toxicity, tilapia” was 9 mg/L (≈ 20.3 µM).

`CCOc1ccc(C(C=CCc2cccc(-c3ccccc3)c2C)C2CC2)cc1` (stereo not shown) [Compound 9]: the mortality at 1000 ppm is 100% with cabbage looper (rate 1000 ppm), 90% in the data set on Mexican bean beetle (rate 1000 ppm), 100% in the data set with pea aphid (rate 1000 ppm) and 100% with twospotted spider mite (rate 1000 ppm).

On to `Fc1ccc(CC=CC(c2ccc(Cl)cc2)C2CC2)cc1Oc1ccccc1` (stereo not shown) [Compound 2, 1-cyclopropyl-1-(4-chlorophenyl)-4-(4-fluoro-3-phenoxyphenyl)-2-butene], for which the mortality at 100 ppm in the data set on cabbage looper came out at 100%; with Mexican bean beetle, 100%; in the data set on pea aphid it was 80%; with tobacco budworm it was 100%; in the data set on twospotted spider mite, 0%. In addition, in the data set with southern corn rootworm, the mortality at 7.5 ppm came to 45%. The 50% lethal concentration (LC50) at 48 h in the data set “Fish toxicity, tilapia” lay in the range of 7.5 to 10 mg/L (≈ 19.1 to 25.5 µM).

Regarding `Clc1ccc(C(C=CCc2cccc(Oc3ccccc3)c2)C2CC2)cc1` (stereo not shown) [Compound 1], the mortality at 100 ppm with cabbage looper worked out at 100%; in the data set on Mexican bean beetle, 100%; in the data set on pea aphid, 75%; in the data set with tobacco budworm it was 100%; with twospotted spider mite, 2%. Further, the mortality at 7.5 ppm in the data set on southern corn rootworm is 45%. Also, the LC50 at 48 h in “Fish toxicity, tilapia” lay within 3 to 5 mg/L (≈ 8 to 13.3 µM).

In the case of `FC(F)(F)Oc1ccc(C(C=CCc2cccc(Oc3ccccc3)c2)C2CC2)cc1` (stereo not shown) [Compound 5], the mortality at 100 ppm amounted to 85% in the data set on cabbage looper; 100% in the data set on Mexican bean beetle; 100% with pea aphid; 80% in the data set on tobacco budworm; 100% in the data set with twospotted spider mite. Further, the mortality at 7.5 ppm in the data set on southern corn rootworm was determined as 50%. Moreover, the LC50 at 48 h in the data set “Fish toxicity, tilapia” is 1 to 3 mg/L (≈ 2.36 to 7.07 µM).

On to `Cc1c(CC=CC(c2ccc(OCC3CC3)cc2)C2CC2)cccc1-c1ccccc1` (stereo not shown) [Compound 8], for which the mortality at 500 ppm in the data set with cabbage looper was 100%; in the data set on pea aphid it was 5%; in the data set on tobacco budworm it was 22%; in the data set on twospotted spider mite, 0%.

`FC(F)(F)c1ccc(C(C=CCc2cccc(Oc3ccccc3)c2)C2CC2)cc1` (stereo not shown) [Compound 3]: the mortality at 100 ppm with cabbage looper is 90%; in the data set with Mexican bean beetle it was 100%; in the data set with pea aphid it was 45%; with tobacco budworm, 100%; in the data set with twospotted spider mite, 90%. Moreover, the mortality at 7.5 ppm in the data set with southern corn rootworm is 60%. The 50% lethal concentration (LC50) at 48 h in the data set “Fish toxicity, tilapia” lay in the range of 5 to 7.5 mg/L (≈ 12.2 to 18.4 µM).
